For 16 compounds, logP and I results are on record in ChEMBL document CHEMBL1130382, “Inhibition of thyroid hormone uptake by calcium antagonists of the dihydropyridine class” (J Med Chem, 1997).

The nature of data set [1]: Partition coefficient (logP). Conditions: octanol/water.
The subject of data set [2] is HepG2. In words: Inhibitory effect on L-triiodothyronine (L-T3) uptake by human HepG2 hepatoma cells at an application dose 10E-5 M. Format: functional.
Data set [3] relates to HepG2. In words: Compound tested for inhibitory effect on L-triiodothyronine (L-T3) uptake by human HepG2 hepatoma cells at an application dose 10E-5 (M). Format: functional.

In data set [1], `CCO/C(O)=C1\C(C)=NC(C)=C(C(=O)OC)C1c1ccccc1C(F)(F)F` (stereo not given) came in with a logP of 3.82. Besides, in data set [2], the I amounted to 23.1%.
For `O=C(O)c1ccccc1Nc1ccccc1` [FENAMIC ACID], in that order: 3.08 and 20.5%.
On the same counts, the results for `c1ccc(Nc2ccccc2)cc1` [DIPHENYLAMINE] are 2.94 and 20.9%.
On the same counts, the results for `CCOC(=O)C1=C(C)NC(C)=C(C(=O)OCC)C1c1cccc(O)c1` are 4.03 and 21.6%.
Compound `CCOC(=O)C1=C(C)N=C(C)/C(=C(/O)OCC)C1c1cccc(C)c1` (stereo not given) registered a logP in data set [1] of 3.76. The compound further had an I in data set [2] of 29.7%.
`CCOC(=O)C1=C(C)N=C(C)/C(=C(/O)OCC)C1c1cccc(OC)c1` (stereo not given): the lipophilicity (logP) in data set [1] was determined as 3.22. Also, the I in data set [2] is 17.5%.
On the same counts, the results for `CCOC(=O)c1c(C)nc(C)c(C(=O)OCC)c1-c1cccc([N+](=O)[O-])c1` are 3.1 and 28.4%.
`CCOC(=O)C1=C(C)N=C(C)/C(=C(/O)OCC)C1c1cccc(I)c1` (stereo not given) yielded a lipophilicity (logP) in data set [1] of 4.48. The compound further yielded an I in data set [3] of 33.2%.
`c1ccc(Oc2ccccc2)cc1` [DIPHENYLETHER]: the logP in data set [1] is 3.83. This compound displayed an I in data set [2] of 22%.
`CCOC(=O)C1=C(C)NC(C)=C(C(=O)OC)C1c1cccc([N+](=O)[O-])c1` (stereo not given) [NITRENDIPINE] showed an I in data set [2] of 81.8%.
`CCO/C(O)=C1\C(C)=NC(C)=C(C(=O)OC)C1c1ccccc1[N+](=O)[O-]` (stereo not given): the log partition coefficient (logP) in data set [1] amounted to 2.51. In data set [2], this compound returned an I of 41.4%.
On the same counts, the results for `CCOC(=O)C1=C(C)N=C(C)/C(=C(/O)OCC)C1c1ccc(I)cc1` (stereo not given) are 4.7 and 26.8%.
On to `CCO/C(O)=C1\C(C)=NC(C)=C(C(=O)OC)C1c1ccc([N+](=O)[O-])cc1` (stereo not given), for which, in data set [1], the logP was determined as 3.6. The compound further came in with an I in data set [2] of 85.8%.
On the same counts, the results for `CCO/C(O)=C1\C(C)=NC(C)=C(C(=O)OC)C1c1cccc(C(F)(F)F)c1` (stereo not given) are 3.9 and 19.6%.
In the case of `COC(=O)C1=C(C)NC(C)=C(C(=O)OC)C1c1ccccc1[N+](=O)[O-]` [NIFEDIPINE], the I in data set [2] is given as 80.5%.
As for `CC1=C(C#N)C(c2cccc([N+](=O)[O-])c2)C(C#N)=C(C)N1`, the logP in data set [1] stood at 1.45. Besides, the I in data set [2] worked out at 53.8%.
